Data as given in a melting point compilation (Tetko et al.).

`CC1Cc2ccccc2N1S(N)(=O)=O` (stereo unspecified) gave a melting point of 67 to 69 °C. Molecule `Nc1cc(-c2cc(F)cc(F)c2)no1` has a melting point of 114 to 116 °C. With `Cc1nn(C)c2c1NC(=O)CO2` the melting point was 219 to 221 °C. Molecule `O=C(O)CSc1ccc2c(c1)CCC2` has a melting point of 64 to 66 °C. Work on `CC(C)C(=O)Nc1nc(CC(=O)O)cs1` yielded a melting point of 187 to 189 °C. With `NC(Cn1cnc2ccccc21)c1ccc(F)cc1` (stereo unspecified) the melting point was 86 to 88 °C. `COc1ccc(-c2n[nH]c(S)nc2=O)cc1` gave a melting point of 284 to 286 °C. `Cc1cc(N)nn1C` gave a melting point of 49 to 51 °C. `O=C(O)C1(c2ccccc2F)CC1` gave a melting point of 106 to 108 °C. Work on `CCN(c1ccccc1)S(=O)(=O)c1ccc(Cl)c([N+](=O)[O-])c1` yielded a melting point of 122 to 124 °C. In the case of `CCOc1ccc(CN2C(=O)c3ccccc3C2=O)cc1C(=O)O`, the melting point is reported as 172 to 174 °C. In the case of `COc1ccc2cc(C(=O)O)[nH]c2c1`, the melting point is reported as 190 to 192 °C. With `CC(=O)N1CCc2ccc(S(=O)(=O)Cl)cc21` the melting point was 144 to 146 °C. Molecule `Nc1ccc(Oc2ccc(F)cc2)c2ccncc12` has a melting point of 149 to 151 °C. `COc1ccc(C2(c3ccc(OC)cc3)NC(=O)NC2=O)cc1` showed a melting point of 237 to 239 °C. `CCOc1cc(N)c(Br)cc1OCC` showed a melting point of 50 to 52 °C. For `COC(=O)N1CCCNC(=O)C1`, the melting point was 134 to 136 °C. `Nc1ccc(-n2cncn2)c(Cl)c1` gave a melting point of 131 to 133 °C. In the case of `COc1ccc(S(=O)(=O)Cl)c2ccccc12`, the melting point is reported as 95 to 97 °C. `CCOc1cccc2c1C(=O)NC2=O` gave a melting point of 149 to 151 °C. Molecule `COC(=O)c1nc2nc(C(C)C)cc(Cl)n2n1` has a melting point of 104 to 106 °C. With `NC(=O)c1ccc(N2CCSCC2)c(N)c1` the melting point was 196 to 198 °C. With `O=C(O)c1cccc(N2C(=O)CCC2=O)c1` the melting point was 237 to 239 °C. In the case of `CN(C)S(=O)(=O)c1ccc2c(c1)NCC2`, the melting point is reported as 121 to 123 °C. `Cc1cc(Br)ccc1N1CC(C(=O)O)CC1=O` (stereo unspecified) gave a melting point of 81 to 83 °C. `Nc1ccc(F)c(N(S(=O)(=O)c2ccccc2)S(=O)(=O)c2ccccc2)c1` gave a melting point of 159 to 161 °C. Molecule `O=C1NCCNC1c1cccs1` (stereo unspecified) has a melting point of 111 to 113 °C. For `O=C(NCC1CCCNC1)Nc1cccc(F)c1` (stereo unspecified), the melting point was 123 to 125 °C. Molecule `COCCOc1cc2c(cc1C=O)OCO2` has a melting point of 84 to 86 °C. Work on `O=C(O)Cc1csc(-c2ccccn2)n1` yielded a melting point of 140 to 147 °C. `O=S(=O)(Cl)c1cnn(-c2ccccc2F)c1` gave a melting point of 81 to 83 °C. `CCCNC(=O)Nc1ccc(CC(=O)O)cc1` showed a melting point of 174 to 176 °C. Molecule `CCOC(=O)C(=O)NN` has a melting point of 39 to 41 °C. With `CC(O)c1ccc(O)cc1` (stereo unspecified) the melting point was 131 to 133 °C. Molecule `CSc1ccc(C(=O)CCC(=O)O)cc1` has a melting point of 152 to 154 °C. Molecule `O=C(CCl)Nc1ccc(-c2ccccc2)cc1` has a melting point of 121 to 123 °C. `N#Cc1ccc(-n2nccc2N)cc1` gave a melting point of 114 to 116 °C. In the case of `CNC(=O)c1ccc(CN)cc1`, the melting point is reported as 90 to 92 °C. Molecule `CC(C)(C)S(=O)(=O)Cc1cccc(N)c1` has a melting point of 175 to 177 °C. For `O=C(O)C1CCN(C(=O)CSc2nnc(-c3ccccc3)o2)CC1`, the melting point was 104 to 106 °C. Molecule `CN(C)C(=O)c1ccc(C(=O)O)cc1` has a melting point of 178 to 180 °C. In the case of `NS(=O)(=O)c1cnn(CC(=O)O)c1`, the melting point is reported as 156 to 158 °C. In the case of `CNCCCc1n[nH]c(N)c1C#N`, the melting point is reported as 179 to 181 °C. With `Nc1ccc(Oc2ccc(Cl)cc2)nc1` the melting point was 89 to 91 °C. In the case of `CC(=O)N1Cc2ccc(N)cc2C1`, the melting point is reported as 169 to 171 °C. For `COC(=O)c1cc(F)c(Br)c([N+](=O)[O-])c1`, the melting point was 66 to 68 °C. Work on `O=C(O)CNC(=O)c1ccc(Br)s1` yielded a melting point of 177 to 179 °C. Work on `O=C(NCc1ccccn1)OCC(F)(F)F` yielded a melting point of 50 to 52 °C. In the case of `Cc1ccc2ncc(C(=O)O)c(O)c2c1`, the melting point is reported as 269 to 271 °C. For `Nc1nnn[nH]1`, the melting point was 200 to 204 °C. Molecule `O=C(O)CCNC(=O)c1ccoc1` has a melting point of 154 to 156 °C. `O=C(O)C1=NN(C2CCS(=O)(=O)C2)C(=O)CC1` (stereo unspecified) gave a melting point of 138 to 140 °C. For `Cc1[nH]c2ccccc2c(=O)c1C(C)C`, the melting point was 299 to 301 °C. Molecule `COc1ccc2nc(C)cc(Cl)c2c1` has a melting point of 99 to 101 °C. Work on `O=C(O)c1cc(F)cc([N+](=O)[O-])c1Br` yielded a melting point of 177 to 179 °C. For `CC(C)c1ccc(SCC(=O)O)cc1`, the melting point was 66 to 68 °C. `Nc1nnc(N2CCC(C(=O)O)CC2)[nH]1` gave a melting point of 264 to 266 °C. `COc1cccc(C(=O)O)n1` showed a melting point of 133 to 135 °C. In the case of `Cc1ccc([N+](=O)[O-])cc1NC(=O)CCCl`, the melting point is reported as 155 to 157 °C. `O=C(O)c1nnn(-c2ccc(F)cc2)c1C(F)(F)F` showed a melting point of 146 to 148 °C. Molecule `CC(C)C(Br)C(=O)Nc1ccccc1C(F)(F)F` (stereo unspecified) has a melting point of 123 to 125 °C. Molecule `N#Cc1nc(N)[nH]c1C#N` has a melting point of 270 to 272 °C. Molecule `COc1c(F)c(F)c(N)c(F)c1F` has a melting point of 78 to 80 °C. `Cc1cc(-c2nc(C3CC3)no2)ccc1N` showed a melting point of 87 to 89 °C. With `Cc1[nH]c2c(Cl)cccc2c1C=O` the melting point was 229 to 231 °C. In the case of `Nc1ccc(CCN2CCOC2=O)cc1`, the melting point is reported as 192 to 194 °C. Work on `O=Cc1ncc(-c2cccc(Br)c2)[nH]1` yielded a melting point of 209 to 211 °C. Work on `COc1ccc([N+](=O)[O-])c2cccnc12` yielded a melting point of 145 to 147 °C. In the case of `COc1cccc(COc2cccc(Cl)c2C=O)c1`, the melting point is reported as 64 to 66 °C. Work on `CCNc1ccncc1` yielded a melting point of 103 to 105 °C. Work on `O=C(O)c1cc(I)cc([N+](=O)[O-])c1` yielded a melting point of 167 to 169 °C.
